Reference: paper PMC12444508, “Mechanistic Insights into the Anticancer Action of Novel 2‑Hydroxy-1,4-naphthoquinone Thiol Derivatives” (ACS Omega, 2025)

Experiments:
[1] = test system: primary normal human gingival fibroblasts; test: MTT cell viability assay, primary gingival fibroblasts; format: cell-based; conditions: Homo sapiens, Fibroblast; 72 h, MTT; read-out: IC50 primary gingival fibroblast
Protocol: (§1) Human SCC-4, SCC-9, and SCC-25 cells, derived from a human oral tongue SCC (squamous cell carcinoma), were obtained from ATCC (CRL-1624, CRL-1629, and CRL-1628, respectively) and maintained in 1:1 DMEM/F12 (Dulbecco’s modified Eagle’s medium and Ham’s F12 medium; Gibco (Thermo Fisher, Waltham, MA, USA)) supplemented with 10% (v/v) FBS (fetal bovine serum; Invitrogen, Thermo Fisher, Waltham, MA, USA) and 400 ng/mL hydrocortisone (Sigma-Aldrich Corporation, St. Louis, MO, USA). B16-F10 (melanoma; CRL-6475), HCT-116 (colorectal cancer; CCL-247), and HepG2 (liver cancer; HB-8065), in addition to primary normal human gingival fibroblasts obtained from ATCC (PCS-201-018), were maintained in DMEM supplemented with 10% (v/v) of FBS and were used in a maximum of six passages. Cells were grown in a humidified environment containing 5% CO2 at 37 °C. For all biological assays, compounds and shikonin were solubilized in 100% DMSO (all Sigma-Aldrich Corp.) to a final concentration of 10 mM and lapachol in ethanol. The carboplatin control was prepared in water (Fauldcarbo; Libbs Farmacêutica, São Paulo, SP, Brazil) and was used as a standard anticancer compound.
(§2) The viability of OSCC cell lines and primary human fibroblast cells was assessed using the MTT assay as in ref . Briefly, cells were grown in triplicate in 96-well plates (5 × 10^3 cells/well) until confluence. Then, the medium was removed, fresh medium was added, and the cells were returned to the incubator in the presence of different compounds. DMSO at the same concentration was used as a control for 100% cell viability. After 72 h, cells were incubated with 0.5 mg/mL of MTT reagent (3-(4,5-dimethyl-2-thiazolyl)-2,5-diphenyl-2-H-tetrazolium bromide) (Sigma-Aldrich Corporation, Louis, MO, USA) for 3.5 h. Then, the wells containing the cells were washed with PBS heated to 37 °C, the formazan crystals were dissolved in a solvent solution (DMSO/methanol 1:1 v/v), and the absorbance was read at 560 nm using an EPOCH microplate spectrophotometer (BioTek Instruments, Winooski, VT, USA) with the background absorbance at 670 nm subtracted. Control chemotherapeutics (carboplatin and shikonin) were used.
(§3) Data are presented as means ± SD. IC50 values for the MTT assays were obtained by nonlinear regression using the […] 8.4.3.0 program (Intuitive Software for Science, San Diego, CA, USA) from at least three independent experiments. A dose–response curve (inhibitor) vs response using the least-squares method was used to determine the IC50, SD, and R2 of the data. The selectivity index was calculated as SI = IC50 of the compound in normal oral fibroblast cells/IC50 of the same compound for each oral cancer cell line (SCC-4, SCC-9, and SCC-25) and averaged when indicated.

[2] = test system: OSCC cell lines (SCC-4, SCC-9, and SCC-25); test: Average selectivity index over three OSCC cell lines (MTT); format: cell-based, human; conditions: average of SI for SCC-4, SCC-9 and SCC-25 vs normal oral fibroblasts
Protocol: as §1, §2, §3

B16-F10 (melanoma) = test: MTT cytotoxicity/selectivity, B16-F10; format: cell-based; conditions: vs normal oral fibroblasts
Protocol: as §1
as §2, with “DMSO at the same concentration was used as a control for 100% cell viability. After 72 h, cells were incubated with 0.5 mg/mL of MTT reagent (3-(4,5-dimethyl-2-thiazolyl)-2,5-diphenyl-2-H-tetrazolium bromide) (Sigma-Aldrich Corporation, Louis, MO, USA) for 3.5 h.” left out, “Control chemotherapeutics (carboplatin and shikonin) were used.” left out
Data are presented as means ± SD. […] The selectivity index was calculated as SI = IC50 of the compound in normal oral fibroblast cells/IC50 of the same compound for each oral cancer cell line (SCC-4, SCC-9, and SCC-25) and averaged when indicated.

[3] = test system: active caspase 3/7 in SCC-9 cells; test: Active caspase 3/7 staining; format: cell-based, human; conditions: 2 × IC50, 24 h
Protocol: The following reagents were used in this assay: CellEvent Caspase-3/7 Green Ready Probes Reagent kit (R37111, Thermo Fisher, Waltham, Massachusetts, USA). SCC-9 cells were plated in 24-well microplates in the amount of 5 × 10^4 cells per well as previously described in ref . […] The duration of the treatment time was 24 h. After this period, the cells were taken to the Zeiss Axio Observer A1 fluorescence optical microscope (Zeiss, Oberkochen, Baden-Württemberg, Germany) to obtain caspase labeling images from five different fields. Data quantification was performed using the ImageJ program, and the values of reactive cells for caspase were compared in relation to the total number of cells per field, and the result was given as a percentage.

SCC-9-LC3-GFP cells = test: Autophagy assay (LC3-GFP puncta); format: cell-based, human; conditions: 1 × IC50, 48 h
Protocol: To determine whether compounds 7a and 7e induce autophagy, SCC-9 cells were stably transduced with the plasmid expressing LC3-GFP as described. […] As a positive control, we used compound 8 (Supplementary Figure S1), an already described naphthoquinone-triazole-coumarin hybrid, able to induce autophagy at its IC50 concentration, 30 μM. After 48 h, the cells were visualized using a Zeiss Axio Observer A1 Fluorescence Optical Microscope (Zeiss, Oberkochen, Baden-Württemberg, Germany) to observe the formation of typical autophagy spots and photographed using a high-resolution monochromatic microscopy camera (Axiocam 503 mono, resolution: 1936 × 1460 pixels, pixel size: 4.54 μm × 4.54 μm) to maximize sensitivity and image quality.

SCC-9 cells = test: Cell migration (wound healing) assay; format: cell-based, human; conditions: 1/8 of IC50, 72 h, SCC-9, mitomycin C
Protocol: To evaluate the inhibitory capacity of cell migration by substances 7a and 7e, 2 × 10^5 cells of the SCC-9 lineage were plated in a 35 mm Petri dish containing 2.0 mL of supplemented DMEN/F-12 medium and incubated at 37 °C with 5% CO2 until they reached at least ∼100% confluence. After this time, the metabolized medium was removed, and the cells were washed once with PBS and fresh medium (2.0 mL) treated with mitomycin C (MMC), 1-amino-9a-metoxi-7-metil-4,7,9,9a-tetra-hidro-3H-furo[3,4:6,7]-nafto[1,2-d]-imidazole-2(1H)-ona (Sigma-Aldrich Corporation, San Luis, Missouri, USA) at a concentration of 0.5 mg/mL, in a volume of 0.5 μL/mL, and returned to the incubator for 2 h. At the end of the time, scratch wounds were created on the cell monolayer by using a 200 μL capacity tip. […] The plate containing the cells was inserted into a chamber adapted to a Leica DMi1 inverted optical microscope (Leica Microsystems, Wetzlar, Germany) under controlled conditions of CO2 (5%) and temperature (37 °C). Phase contrast images in timelapse footage at 20× magnification for 72 h were captured every 2 min and 24 s. Measurements between the captured margins were collected using ImageJ analysis software (National Institute of Health, USA). […] The percentage of wound closure at each subsequent time is calculated in relation to the initial distance (time: 0 h).

SMILES | IC50 [1] [µM] | average SI [2] | selective index (SI) B16-F10 melanoma (B16-F10 (melanoma)) | cells with positive staining for active caspases 3 and 7 [3] [%] | cells with LC3-positive puncta (autophagosome formation) (SCC-9-LC3-GFP cells) [%] | wound closure (SCC-9 cells) [%]
CC1(C)OC2=C(C(=O)c3ccccc3C2=O)C(Sc2ccccc2)C1Sc1ccccc1 (centres unmarked) [7a, 2,2-Dimethyl-3,4-bis(phenylthio)-3,4-dihydro-2H-benzo[g]chromene-5,10-dione] | 57.3 | 3.2 | 1.4 | 71 | 20.5 | 28.4
COc1ccc(SC2C3=C(OC(C)(C)C2Sc2ccc(OC)cc2)C(=O)c2ccccc2C3=O)cc1 (centres unmarked) [7e, 3,4-Bis((4-methoxyphenyl)thio)-2,2-dimethyl-3,4-dihydro-2H-benzo[g]chromene-5,10-dione] | 110 | – | 7.5 | 78.6 | 7.4 | 54.7
